Here are results for 10 compounds from patent US9120787B2, “HIV replication inhibitors” (priority 2011, dated 2015).

For series [1], the system named is HIV-1Ba-L. In words: HIV-1Ba-L replication in PBMCs (supernatant RT end-point). The procedure, abridged:
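Pooled PHA-stimulated human PBMCs (5×10^4 cells/well) were infected with HIV-1Ba-L at MOI 0.1 with nine ½-log compound dilutions and cultured seven days at 37° C. Supernatant RT activity was measured by ^3H-TTP incorporation on poly rA:oligo dT (60 minutes, 37° C) and counted by scintillation.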

The nature of series [2]: Cytotoxicity by MTS staining in PBMCs. In kind it is cell-based. The following applies: human, peripheral blood mononuclear cells (PBMC), read-out: TC50. Here is the method: (§1) Cytotoxicity was assessed by MTS staining. At assay end-point, PBMC were stained with the addition of […] of the soluble tetrazolium-based dye MTS to determine cell viability and quantify compound toxicity. The plates were incubated 4 to 6 hrs at 37° C. Following incubation, the activity was assessed by reading absorbance values at 490/650 nm.

Series [3] deals with T1, recombinant HIVNL4-3 heterodimeric (p66/p51) Reverse Transcriptase (Human immunodeficiency virus type 1 group M subtype B, UniProt P12497).
T1 construct: Purified recombinant HIVNL4-3 heterodimeric (p66/p51) Reverse Transcriptase (RT)
In words: Biochemical reverse transcriptase assay. On the set-up: species or system HIV-1. The following applies: 5'LTR template/primer. Here is the method: Enantiomers of Example 34 were created and utilized to assess the activity of the compounds in a biochemical reverse transcriptase assay. Purified recombinant HIVNL4-3 heterodimeric (p66/p51) Reverse Transcriptase (RT) was used in experiments. RT activity was determined by the incorporation of radiolabeled deoxyribonucleotides into the newly synthesized DNA strand. The standard RT reaction mixture contained a synthetic homopolymeric template/primer [poly(rA)/oligo(dT)] or in vitro transcribed viral RNA derived from the HIV-1NL4-3 5′-LTR region (nucleotide residues 454 to 652) and a primer complementary to the primer binding site (PBS, nucleotide residues 636 to 652), radiolabeled deoxyribonucleotide, dNTPs and RT. The reaction was carried out in a volume of 40 μl containing 50 mM Tris HCl, pH 7.8, 50 mM KCl, 5 mM MgCl2, 1 mM DTT, 50 μM each of dATP, dCTP, dGTP, 50 nM dTTP, 1 μCi of [^3H] dTTP (70-90 Ci/mM) and 5 nM template/primer. The reaction was initiated by the addition of 10 nM RT. For compound screening, serially diluted test articles were added to the reaction followed by the addition of RT. The reaction mixture was incubated at 37° C. for 1 h, then quenched by the addition of ice-cold trichloroacetic acid (TCA) to the final concentration of 10%. The plate was incubated at 4° C. for 1 h to precipitate the synthesized DNA, then rinsed 3-times with 10% TCA and 1 time with 70% ethanol. After addition of 25 μl scintillation fluid to completely dried wells, radioactivity is counted by MicroBeta scintillation counter. The reduction of radioactivity represents the potency of compound inhibition.

Series [4] deals with HIV-1Ba-L. In words: Inhibition of virus replication in MAGI-CCR5 cells (β-galactosidase reporter). It is filed as cell-based. Particulars: HIV-1Ba-L in MAGI-CCR5 cells; for IC50: 48 hours, β-galactosidase reporter expression, read-out: IC50. The procedure, abridged:
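HeLa-derived MAGI-CCR5 cells (high CD4/CCR5, HIV-1 LTR-driven β-galactosidase) plated at 1.0×10^4 cells/well the day before infection with HIV-1Ba-L. Compounds tested at six concentrations in triplicate, with parallel uninfected plates for cytotoxicity.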

Another series has as its system MAGI-CCR5 cells. In words: Cytotoxicity by MTS staining in uninfected MAGI-CCR5 cells. It is filed as cell-based. The following applies: 48 hours, read-out: TC50 (the source's name). The procedure, abridged: (§2)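 Uninfected MAGI-CCR5 cells (HeLa-CD4-LTR-β-gal derived, expressing CD4/CCR5) plated at 1.0×10^4 cells/well the day before, then exposed to compounds at six concentrations in triplicate alongside parallel infected assays. Viability read by MTS staining.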

Series [5] deals with peripheral blood mononuclear cells (PBMC). In words: Cytotoxicity by MTS staining in PBMCs. In kind it is cell-based. Particulars: read-out: TC50 (the source's name). The procedure:
as §1

A further series concerns HIV-1 K103N, Y181C (A17). In words: HIV-1 K103N, Y181C (A17) replication in PBMCs. In kind it is cell-based. The text has this:
In another embodiment of the present disclosure compounds are provided which inhibit the replication of HIV strains resistant to NNRTIs. Compounds in this disclosure inhibit, A17, an HIV-1 virus with mutations in the RT non-nucleoside binding pocket, K103N and Y181C, in a dose-dependent susceptibility testing manner.
The asparagine variation at residue 103 and the cysteine variation at residue 181 are known to inhibit the activity of the NNRTI's.
Evaluation Dihydropyrimidines vs. HIV-1Ba-L and HIV-1 K103N, Y181C in PBMCs

The nature of series [6]: Cytotoxicity by MTS staining in uninfected MAGI-CCR5 cells. In kind it is cell-based. Particulars: human, read-out: TC50. The procedure, abridged: as §2
Setting [7] is: Human immunodeficiency virus 1, PBMC, 168 h.
Setting [8] is: 5'LTR/dPR IC50, HIV RT biochemical assay.
The mark [9] stands for this setting: HIV-1Ba-L in PBMCs, seven days, RT end-point.
The mark [10] stands for this setting: Virus Ba-L in PBMCs (Ba-L vs A17 comparison).
Setting [11] is: Virus A17 (K103N, Y181C) in PBMCs.
[12] abbreviates: Human immunodeficiency virus 1, BAL, PBMC.
Where [13] appears, read: Human immunodeficiency virus 1, PBMC.

Values joined by “and” are separate entries in the source; they are usually repeats but may differ in a detail not shown here. Identical values can stand only once. Like-named read-outs stand apart in the source and are kept apart here.

As for `CC1=C(c2nc(-c3ccc(C#N)cc3)cs2)C(c2cccc(O)c2)NC(=O)N1` (single isomer, unassigned) [Example 34 (enantiomer)], the “TI (TC50/IC50)” value in the series on HIV-1Ba-L [1] (HIV-1Ba-L in PBMCs) is “D (D < 10.0)”. The figures for the IC50 (in the series on HIV-1Ba-L [1] (setting [7]); in series [3] (setting [8])) were 5 to 100 µM and above 100 µM, respectively. Also, the CC50 at 7 days in series [2] (MTS staining) was at least 100 µM.

Consider `Cc1cn([C@H]2C[C@H](N=[N+]=[N-])[C@@H](CO)O2)c(=O)[nH]c1=O` [AZT, reference compound], for which the “TI (TC50/IC50)” value was above 36.5 with HIV-1Ba-L [4]; above 54.9 in the series on HIV-1Ba-L [1] (HIV-1Ba-L in PBMCs); above 88.6 with HIV-1Ba-L [1] (setting [10]); above 629.0 in the series with HIV-1 K103N, Y181C (A17) (setting [11]). For the same compound, the IC50 in the series with HIV-1Ba-L [4] was found to be 0.08 µM; in the series on HIV-1Ba-L [1] (setting [9]), 0.02 µM; in the series on HIV-1Ba-L [1] (setting [10]), 0.011 µM; in the series on HIV-1 K103N, Y181C (A17) (Virus A17 (K103N, Y181C) in PBMCs, read-out: IC50), 0.0016 µM. The CC50 (in the series with MAGI-CCR5 cells; in series [5] (A17 line of the table); in series [5] (Ba-L line of the table); in series [5] (MTS staining)) was above 1 µM each time.

`Cc1cn([C@H]2C[C@H](N=[N+]=[N-])[C@@H](COP(=O)(O)OP(=O)(O)OP(=O)(O)O)O2)c(=O)[nH]c1=O` [AZT-TP]: the IC50 in series [3] (HIV RT biochemical assay, read-out: 5'LTR/dPR IC50) was 0.009 µM and 0.01 µM.

`CC1=C(c2nc(-c3ccc(C#N)cc3)cs2)C(c2cccc(O)c2)NC(=O)N1` (stereo not drawn) [Example 34]: the “TI (TC50/IC50)” value was “A (A = TI (TC50/IC50) ≧ 100.0)” in the series on HIV-1Ba-L [4] and “A (A = TI (TC50/IC50) ≧100.0)” in the series with HIV-1Ba-L [1] (HIV-1Ba-L in PBMCs). Moreover, the IC50 (with HIV-1Ba-L [4] (Human immunodeficiency virus 1); with HIV-1Ba-L [1] (setting [7]); in series [3] (setting [8])) was below 1 µM in each case. Further, in series [6], the CC50 at 48 h was at least 100 µM. Also, the CC50 at 7 days in series [2] (MTS staining) lay in the range of 50 to 100 µM.

On to `CC1=C(c2nc(-c3ccc(C#N)cc3C)cs2)C(c2cccnc2F)NC(=O)N1` (stereo not drawn) [Example 83], for which, in the series on HIV-1Ba-L [4], the “TI (TC50/IC50)” value was “B (B < 100.0-50.0)” and the IC50 is below 1 µM. The CC50 in the series with MAGI-CCR5 cells was below 50 µM.

On to `CC1=C(c2nc(-c3ccc(C#N)cc3C)cs2)C(c2cccnc2F)NC(=O)N1` (stereo not drawn) [Example 86], for which the “TI (TC50/IC50)” value in the series on HIV-1Ba-L [4] was “A (A = TI (TC50/IC50) ≧ 100.0)”; with HIV-1Ba-L [1] (HIV-1Ba-L in PBMCs), “A (A = TI (TC50/IC50) ≧100.0)”; with HIV-1Ba-L [1] (setting [10]), “A (A = TI (TC50/IC50) ≧ 100.0)”; in the series on HIV-1 K103N, Y181C (A17) (setting [11]) it was “D (D < 10.0)”. The IC50 with HIV-1Ba-L [4] was below 1 µM; in the series on HIV-1Ba-L [1] (setting [12]), below 1 µM; in the series with HIV-1Ba-L [1] (setting [7]), below 1 µM; in the series on HIV-1 K103N, Y181C (A17) (setting [13]), 5 to 100 µM. Besides, the CC50 in the series with MAGI-CCR5 cells was at least 100 µM. Besides, the CC50 at 7 days in series [2] (A17 line of the table), in series [2] (Ba-L line of the table) and in series [2] (MTS staining) was at least 100 µM in each case.

Regarding `CC1=C(c2nc(-c3ccc(C#N)cc3)cs2)C(c2ccc(C(F)(F)F)nc2)NC(=O)N1` (stereo not drawn) [Example 96], the “TI (TC50/IC50)” value in the series with HIV-1Ba-L [4] is reported as “A (A = TI (TC50/IC50) ≧ 100.0)”; in the series with HIV-1Ba-L [1] (HIV-1Ba-L in PBMCs) it was “A (A = TI (TC50/IC50) ≧100.0)”; with HIV-1Ba-L [1] (setting [10]), “A (A = TI (TC50/IC50) ≧ 100.0)”; with HIV-1 K103N, Y181C (A17) (setting [11]), “D (D < 10.0)”. The IC50 is below 1 µM with HIV-1Ba-L [4] (Human immunodeficiency virus 1); below 1 µM in the series with HIV-1Ba-L [1] (setting [12]); below 1 µM in the series on HIV-1Ba-L [1] (setting [7]); 5 to 100 µM in the series on HIV-1 K103N, Y181C (A17) (setting [13]). Besides, the CC50 at 48 h in series [6] was at least 100 µM. Besides, the CC50 at 7 days in series [2] (A17 line of the table), in series [2] (Ba-L line of the table) and in series [2] (MTS staining) was at least 100 µM throughout.

Turning to `Cc1ccnc2c1NC(=O)c1cccnc1N2C1CC1` [Nevirapine], the IC50 in series [3] (setting [8]) was 0.29 µM and 0.19 µM.

For `Cc1ccc(-c2ccc3c(c2)C=C(C(=O)Nc2ccc(C[N+](C)(C)C4CCOCC4)cc2)CCC3)cc1.[Cl-]` [TAK 779, reference compound], the entries for the “TI (TC50/IC50)” value with HIV-1Ba-L [4] and in the series with HIV-1Ba-L [1] (HIV-1Ba-L in PBMCs) were 2902.7 and above 29.9, respectively. For the same compound, the IC50 in the series with HIV-1Ba-L [4] was 0.004 µM; in the series on HIV-1Ba-L [1] (setting [9]) it was 0.35 µM. For the same compound, the CC50 (with MAGI-CCR5 cells; in series [5] (MTS staining)) was above 10 µM each time.

As to `Cc1cc(C#N)cc(C)c1Oc1nc(Nc2ccc(C#N)cc2)nc(N)c1Br` [TMC-125, Etravirine, reference compound], the “TI (TC50/IC50)” value with HIV-1Ba-L [4] is >37,500.0; with HIV-1Ba-L [1] (HIV-1Ba-L in PBMCs), above 325.0; with HIV-1Ba-L [1] (setting [10]), above 402.0; in the series with HIV-1 K103N, Y181C (A17) (setting [11]), above 101.0. For the same compound, the IC50 in the series with HIV-1Ba-L [4] (Human immunodeficiency virus 1) was 0.003 µM; in series [3] (setting [8]), 0.19 µM; in the series with HIV-1 K103N, Y181C (A17) (setting [13]), 0.01 µM. Further, the CC50 at 48 h in series [6] is above 100 µM. For the same compound, the CC50 at 7 days in series [2] (A17 line of the table), in series [2] (Ba-L line of the table) and in series [2] (MTS staining) was above 1 µM each time.
